Data: patent US20240158393A1, “PYRIDONE COMPOUNDS AND METHODS OF USE” (Exelixis, Inc., priority 2021, published 2024)
pIC50: −log10 of the molar value.

What was measured:
Format in all cases: biochemical
Human Axl = target: T1, Human Axl (Homo sapiens, UniProt P30530); assay: Human AXL kinase assay (33P radiometric / HTRF KinEase); settings: protocols of Examples A-1 and/or A-2
T1 construct: Human AXL (residues 464-885)
T1 sequence (P30530 1-894 Q764R): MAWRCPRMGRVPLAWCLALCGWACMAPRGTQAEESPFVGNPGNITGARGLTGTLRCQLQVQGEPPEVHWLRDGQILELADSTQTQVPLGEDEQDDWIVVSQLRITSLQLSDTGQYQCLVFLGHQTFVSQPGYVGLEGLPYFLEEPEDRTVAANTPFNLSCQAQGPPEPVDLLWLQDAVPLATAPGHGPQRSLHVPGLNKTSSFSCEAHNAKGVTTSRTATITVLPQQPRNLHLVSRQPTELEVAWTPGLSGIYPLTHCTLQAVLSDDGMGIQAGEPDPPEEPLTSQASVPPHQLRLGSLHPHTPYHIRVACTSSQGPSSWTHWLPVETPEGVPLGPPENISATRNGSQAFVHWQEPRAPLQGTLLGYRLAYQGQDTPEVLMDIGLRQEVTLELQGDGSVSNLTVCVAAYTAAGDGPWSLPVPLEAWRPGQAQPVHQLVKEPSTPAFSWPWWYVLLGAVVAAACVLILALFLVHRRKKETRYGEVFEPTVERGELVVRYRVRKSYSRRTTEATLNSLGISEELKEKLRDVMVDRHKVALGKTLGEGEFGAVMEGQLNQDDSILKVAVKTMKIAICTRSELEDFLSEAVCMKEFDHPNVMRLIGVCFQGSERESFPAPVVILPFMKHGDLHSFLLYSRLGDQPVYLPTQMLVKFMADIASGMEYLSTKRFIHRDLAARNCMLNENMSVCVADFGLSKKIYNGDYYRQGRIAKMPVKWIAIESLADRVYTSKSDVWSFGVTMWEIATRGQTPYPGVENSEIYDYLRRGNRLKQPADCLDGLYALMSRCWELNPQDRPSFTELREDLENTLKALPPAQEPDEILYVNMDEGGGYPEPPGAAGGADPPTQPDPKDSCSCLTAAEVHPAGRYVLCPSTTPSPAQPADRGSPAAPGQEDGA
Procedure: (§1) Kinase activity and compound inhibition were investigated using the ^33P-Phosphoryl transfer radiometric kinase assay, performed using the KinaseProfiler™ service of Eurofins Pharma Discovery Services UK Limited. Dose-response experiments were performed using nine compound concentrations in a 96-well microtiter plate. For each assay, all compounds were prepared to a 50× final assay concentration (50 μM) in 100% DMSO, then diluted in a half-log series, with the final top concentration at 1 μM. This working stock of the compound was added to the assay well as the first component in the reaction, followed by the remaining components as detailed in the following assay protocols below. The positive control wells (100% kinase activity) contain all components of the reaction including 2% DMSO (control for solvent effects), except the compound of interest. Blank wells contain all components of the reaction, with the reference inhibitor, staurosporine. This reference compound was used to abolish kinase activity and generated the 0% kinase activity base-line. IC50 values were calculated by nonlinear regression analysis using the sigmoidal dose-response (variable slope) curve fit on XLFit version 5.3 (ID Business Solutions).
(§2) Kinase activity and compound inhibition were also investigated using the HTRF® KinEase assay (Cisbio Cat #62TKOPEB) per manufacturer's instructions. In short, compounds were delivered in 300 nL volumes at 10 different concentrations in DMSO (3% final) to empty 384-well assay plates (Corning cat #3824). A mixture of enzyme, 1 μM biotinylated peptide substrate, and buffer in 10 μL volume was added. The assay was started upon the addition of ATP (at Km). The 10 μL reaction was incubated at room temperature. The reaction was stopped upon the addition of detection buffer containing streptavidin-XL665 (5 μL) and TK antibody-Eu3+(5 μL). After a 60 min incubation at room temperature, the fluorescence at 665 nm and 620 nm was read on an Envision microplate reader (Perkin Elmer).
(§3) Kinase activity normalized to DMSO (100% activity) and reference compound at 1 μM and (0% activity) was calculated using the fluorescence ratio […]. IC50 values were calculated by nonlinear regression analysis using a 4-parameter logistic curve fit in ActivityBase XE (IDBS).
(§4) Example A-1: Human Axl (residues H473-A894 with Q764R, 161 nM) was incubated with 8 mM MOPS pH 7.0, 0.2 mM EDTA, 250 μM KKSRGDYMTMQIG (SEQ ID NO:1), 10 mM magnesium acetate and 10 μM [γ-^33P-ATP]. The reaction was initiated by the addition of the Mg/ATP mix. After incubation for 40 minutes at room temperature, the reaction was stopped by the addition of phosphoric acid to a concentration of 0.5%. A reaction aliquot of 10 μL was then spotted onto a P30 filtermat and washed four times for 4 minutes in 0.425% phosphoric acid and once in methanol prior to drying and scintillation counting. Incorporated ^33P was measured using the Wallac Microbeta scintillation counter (Perkin Elmer).
Example A-2: Human AXL (residues 464-885; CarnaBio, 1 ng/well) was also incubated with enzymatic buffer (Cisbio) supplemented with 5 mM MgCl2, 1 mM DTT, and Supplemental Enzymatic Buffer (SEB; Cisbio). The mixture was added to the pre-plated compounds. The reaction was initiated upon addition of ATP at Km (1.0 μM). The reaction was incubated at room temperature for 50 min and stopped upon the addition of SA-XL665 and TK-antibody both diluted in EDTA-containing kinase detection buffer (Cisbio). The kinase activity was calculated as stated above and the IC50 values were reported.

Human Mer = target: T2, Human Mer (Homo sapiens, UniProt Q12866); assay: Human Mer kinase assay (33P radiometric / HTRF KinEase); settings: protocols of Examples C-1 and/or C-2
T2 construct: Human Mer (residues R557-E882 with H628Q and R794A, 0.7 nM); purchased Eurofins Pharma Discovery Services UK Limited (KinaseProfiler service)
T2 sequence (Q12866 557-882 limits assumed): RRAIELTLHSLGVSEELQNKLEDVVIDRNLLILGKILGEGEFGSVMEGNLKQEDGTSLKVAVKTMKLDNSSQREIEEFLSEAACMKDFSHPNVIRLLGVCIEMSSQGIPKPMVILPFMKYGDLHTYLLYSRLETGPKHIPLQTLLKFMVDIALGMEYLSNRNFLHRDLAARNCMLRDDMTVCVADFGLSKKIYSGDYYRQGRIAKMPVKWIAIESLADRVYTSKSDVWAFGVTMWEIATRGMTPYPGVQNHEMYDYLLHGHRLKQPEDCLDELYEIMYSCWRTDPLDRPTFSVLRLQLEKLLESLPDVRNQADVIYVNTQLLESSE
Procedure: as §1, §2, §3
Example C-1: Human Mer (residues R557-E882 with H628Q and R794A, 0.7 nM) was incubated with 8 mM MOPS pH 7.0, 0.2 mM EDTA, 30 mM NaCl, 250 μM GGMEDIYFEFMGGKKK (SEQ ID NO: 2), 10 mM magnesium acetate, and 10 μM [γ-^33P-ATP]. The reaction was initiated by the addition of the Mg/ATP mix. After incubation for 40 minutes at room temperature, the reaction was stopped by the addition of phosphoric acid to a concentration of 0.5%. A reaction aliquot of 10 μL was then spotted onto a P30 filtermat and washed four times for 4 minutes in 0.425% phosphoric acid and once in methanol prior to drying and scintillation counting. Incorporated ^33P was measured using the Wallac Microbeta scintillation counter (Perkin Elmer).
Example C-2: Human MER (residues 528-999; CarnaBio, 1 ng/well) was also incubated with enzymatic buffer (Cisbio) supplemented with 5 mM MgCl2 and 1 mM DTT. The mixture was added to the pre-plated compounds. The reaction was initiated upon addition of ATP at Km (40 μM). The reaction was incubated at room temperature for 60 min and stopped upon the addition of SA-XL665 and TK-antibody both diluted in EDTA-containing kinase detection buffer (Cisbio). The kinase activity was calculated as stated above and the IC50 values were reported.

Human Met = target: T3, Human Met (Homo sapiens, UniProt P08581); assay: Human Met kinase assay (33P radiometric / HTRF KinEase); settings: protocols of Examples D-1 and/or D-2; read-out: c-Met IC50
T3 construct: Human MET (residues 956-1390)
Procedure: as §1, §2, §3
Example D-1: Human Met (residues R974-S1390 with A1209G and V1290L, 3.4 nM) was incubated with 8 mM MOPS pH 7.0, 0.2 mM EDTA, 250 μM KKKGQEEEYVFIE (SEQ ID NO:3), 1 mM sodium orthovanadate, 5 mM […], 10 mM magnesium acetate, and 10 μM [γ-^33P-ATP]. The reaction was initiated by the addition of the Mg/ATP mix. After incubation for 40 minutes at room temperature, the reaction was stopped by the addition of phosphoric acid to a concentration of 0.5%. A reaction aliquot of 10 μL was then spotted onto a P30 filtermat and washed four times for 4 minutes in 0.425% phosphoric acid and once in methanol prior to drying and scintillation counting. Incorporated ^33P was measured using the Wallac Microbeta scintillation counter (Perkin Elmer).
(§5) Example D-2: Human MET (residues 956-1390; CarnaBio, 0.1 ng/well) was also incubated with enzymatic buffer (Cisbio) supplemented with 5 mM MgCl2, 1 mM DTT and 1 mM MnCl2. The mixture was added to the pre-plated compounds. The reaction was initiated upon addition of ATP at Km (3.0 μM). The reaction was incubated at room temperature for 40 min and stopped upon the addition of SA-XL665 and TK-antibody both diluted in EDTA-containing kinase detection buffer (Cisbio). The kinase activity was calculated as stated above and the IC50 values were reported.

Human KDR = target: T4, Human KDR (Homo sapiens, UniProt P35968); assay: Human KDR kinase assay (33P radiometric / HTRF KinEase); settings: protocols of Examples B-1 and/or B-2
T4 construct: Human KDR (residues K790-V1356, 55 nM); purchased Eurofins Pharma Discovery Services UK Limited (KinaseProfiler, B-1) and/or CarnaBio (B-2)
Procedure: as §1, §2, §3
as §4, with “B-1:” for “A-1:”, “KDR” for “Axl”, “K790-V1356, 55” for “H473-A894 with Q764R, 161”, “0.33 mg/mL myelin basic protein,” for “250 μM KKSRGDYMTMQIG (SEQ ID NO:1),”, “acetate,” for “acetate”
as §5, with “B-2:” for “D-2:”, “KDR” for “MET”, “790-1356;” for “956-1390;”, “MnCl2,” for “DTT”, “DTT.” for “MnCl2.”, “(4.0” for “(3.0”

T3 sequence (P08581 974-1390 limits assumed): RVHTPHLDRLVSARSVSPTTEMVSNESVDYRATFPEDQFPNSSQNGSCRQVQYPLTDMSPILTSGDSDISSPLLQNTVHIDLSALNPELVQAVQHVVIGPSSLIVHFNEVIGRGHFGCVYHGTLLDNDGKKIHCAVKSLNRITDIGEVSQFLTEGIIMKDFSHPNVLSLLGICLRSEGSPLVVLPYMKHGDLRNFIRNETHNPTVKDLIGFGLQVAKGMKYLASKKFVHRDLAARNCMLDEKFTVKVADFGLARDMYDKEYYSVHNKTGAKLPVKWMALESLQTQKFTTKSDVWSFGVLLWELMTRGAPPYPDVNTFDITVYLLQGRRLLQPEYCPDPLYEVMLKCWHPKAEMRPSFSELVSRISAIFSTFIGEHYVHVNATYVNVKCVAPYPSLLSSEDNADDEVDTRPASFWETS
T4 sequence (P35968 790-1356): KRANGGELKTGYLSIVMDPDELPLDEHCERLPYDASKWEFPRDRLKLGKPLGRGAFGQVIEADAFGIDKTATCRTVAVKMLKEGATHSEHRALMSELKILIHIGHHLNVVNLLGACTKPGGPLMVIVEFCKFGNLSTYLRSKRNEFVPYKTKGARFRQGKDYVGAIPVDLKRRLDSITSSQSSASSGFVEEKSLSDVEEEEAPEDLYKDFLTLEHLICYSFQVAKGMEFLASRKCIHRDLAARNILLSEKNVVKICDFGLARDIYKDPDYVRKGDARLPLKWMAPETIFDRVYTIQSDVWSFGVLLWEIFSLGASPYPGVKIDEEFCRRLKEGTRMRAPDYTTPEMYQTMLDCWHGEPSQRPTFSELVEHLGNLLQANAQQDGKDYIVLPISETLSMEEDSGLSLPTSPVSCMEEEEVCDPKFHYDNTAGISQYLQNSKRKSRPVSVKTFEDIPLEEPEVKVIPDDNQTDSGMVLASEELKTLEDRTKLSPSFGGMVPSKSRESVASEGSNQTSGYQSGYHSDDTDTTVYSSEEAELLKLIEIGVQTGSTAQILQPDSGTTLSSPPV

| pIC50 (Human Axl) | pIC50 (Human Mer) | pIC50 (Human Met) | pIC50 (Human KDR) | SMILES |
| --- | --- | --- | --- | --- |
| ≥ 7.00 | ≥ 7.00 | – | – | COCCOc1cnc2c(Oc3ccc(NC(=O)c4c(C)nc(C)c(C5=CCCC5)c4O)cc3F)ccnc2c1 [Compound 101, 5-(Cyclopenten-1-yl)-N-[3-fluoro-4-[[7-(2-methoxyethoxy)-1,5-naphthyridin-4-yl]oxy]phenyl]-4-hydroxy-2,6-dimethylpyridine-3-carboxamide] |
| – | < 6.52 | < 6.52 | ≥ 7.00 | COc1cnc2c(Oc3ccc(NC(=O)c4c(C)nc(C)c(OC)c4O)cc3F)ccnc2c1 [Compound 60, N-[3-Fluoro-4-[(7-methoxy-1,5-naphthyridin-4-yl)oxy]phenyl]-4-hydroxy-5-methoxy-2,6-dimethylpyridine-3-carboxamide] |
| – | < 6.52 | < 6.52 | ≥ 7.00 | COCCOc1cc2nccc(Oc3ccc(NC(=O)c4c(C)nc(C)c(OC)c4O)cc3F)c2nc1OC [Compound 70, N-[3-Fluoro-4-[[6-methoxy-7-(2-methoxyethoxy)-1,5-naphthyridin-4-yl]oxy]phenyl]-4-hydroxy-5-methoxy-2,6-dimethylpyridine-3-carboxamide] |
